Experimental data: patent US6599931B1, “Test system for characterizing the compatibility of bioactive substances and polyvinylpyrrolidone” (Abbott GmbH & Co. KG, priority 1998, dated 2003)

Tests used:
[1] = Dissolving and recrystallization behavior of active ingredient in 1,3-bis(1-pyrrolidonyl)butane (DHVP) test system; conditions: for RT: solution in DHVP: room temperature; for solubility in DHVP: comparison; for Sol. at (temperature at which solution forms): heated
Description: The ratios of the amounts can in principle be chosen without restriction and naturally depend essentially on the properties of the active ingredient. However, it is advisable to choose the concentration ranges in the test system so that they correspond to active ingredient contents typical of extruded forms, that is to say generally from 0.1 to 70, preferably 10 to 30% by weight of active ingredient, based on the total weight of the test system. However, it is also possible in the individual case to prepare solutions or dispersions with a concentration of 60% by weight or even higher. It is preferred to carry out test series with increasing active ingredient contents. The active ingredient(s) are weighed out, mixed with the appropriate amounts of DHVP and preferably stirred, normally with a typical laboratory magnetic stirrer at 5 to 200 rpm. […] The heating is preferably carried out so as to correspond approximately to the heating rate in a subsequent melt formulation, that is to say at 0.5 to 5° C./min. The test system is preferably heated to a maximum of 140° C. However, it is also possible in the individual case to heat to the boiling point of DHVP. The test system is then allowed to cool to room temperature.
The prepared test systems are assessed spectroscopically. […] The recrystallization behavior is also assessed. The recrystallization behavior immediately after cooling to room temperature is an important criterion especially for test systems in which the active ingredient has been induced to dissolve by heating.
leaving to stand at room temperature for 24 hours
Investigation is always of whether the active ingredient has recrystallized out of the solution.

[2] = Solubility in DMSO (comparison)
[3] = Melt extrudate with PVP K 30: formation of solid solution; format: physicochemical; conditions: for Extrudate: solution (solid): 30% by weight in PVP, melt extrudate with PVP K 30; for solid solution with PVP: comparison

Recryst. (recrystallization) ([1]; 10% by weight in DHVP) | RT: solution in DHVP ([1]; 10% by weight in DHVP) | Recryst. (recrystallization) ([1]; 30% by weight in DHVP) | RT: solution in DHVP ([1]; 30% by weight in DHVP) | Extrudate: solution (solid) [3] | Recryst. after (time to recrystallization) ([1]; 30% by weight in DHVP) [h] | Sol. at (temperature at which solution forms) ([1]; 30% by weight in DHVP) | Sol. at (temperature at which solution forms) ([1]; 10% by weight in DHVP) | Structure (SMILES) | solubility in DHVP [1] | solubility in DMSO (dimethyl sulfoxide) [2] | solid solution with PVP [3]
Recryst.: − | RT: + | Recryst.: − | RT: + | + | – | – | – | CC(C)Cc1ccc(C(C)C(=O)O)cc1 (stereo not shown) [Ibuprofen] | soluble | soluble | solid solution
Recryst.: − | RT: + | – | RT: − | + | 20 | Sol. at 70 °C | – | CCS(=O)(=O)Oc1ccc2c(C)c(C)c(=O)oc2c1 [Esuprone] | – | – | –
Recryst.: − | RT: + | – | RT: − | + | 96 | Sol. at 60 °C | Sol. at 60 °C | COc1ccc(CCN(C)CCCC(C#N)(c2cc(OC)c(OC)c(OC)c2)C(C)C)cc1OC.Cl (stereo not shown) [Gallopamil HCl] | – | – | –
Recryst.: − | RT: + | – | RT: − | + | 40 | Sol. at 70 °C | – | CN(C)CCOC1=Cc2ccccc2Sc2ccc(Cl)cc21 [Zotepine] | – | – | –
– | – | – | – | – | – | – | – | Cn1c(=O)c2[nH]cnc2n(C)c1=O [Theophylline] | insoluble | soluble | no solid solution
Recryst.: − | RT: − | Recryst.: − | RT: − | + | – | Sol. at 90 °C | Sol. at 90 °C | CC(=O)Nc1ccc(O)cc1 [Paracetamol] | – | – | –
